Assay results from PubChem BioAssay AID328 (DTP/NCI, 2004).
“And” between values parts separate entries of the source, which are not always exact repeats. Equal values may be shown once. Toxic doses and inconclusive results are not listed.

System: BDF1 mice, P388 leukemia ip, median survival T/C
Assay: NCI In Vivo Anticancer Drug Screen. Data for tumor model P388 Leukemia (intraperitoneal) in B6D2F1 (BDF1) mice
Conditions: endpoint: median survival time, higher = longer survival
Method: The antitumor activity of compounds was measured in mice bearing transplantable tumors. Survival or tumor size were measured and the results are expressed as the measurement made in the treated group (T) divided by the measurement made in the vehicle treated control group (C). The tumor model used in this assay is P388 Leukemia (intraperitoneal) in B6D2F1 (BDF1) mice

[1] = dose: 6.25 mg/kg/injection, schedule: Q01DX009 (ip), vehicle: saline
[2] = dose: 12.5 mg/kg/injection, schedule: Q01DX009 (ip), vehicle: Klucel (hydroxypropylcellulose) (HPC)
[3] = dose: 12.5 mg/kg/injection, schedule: Q01DX009 (ip), vehicle: saline
[4] = dose: 6.25 mg/kg/injection, schedule: Q01DX009 (ip), vehicle: saline with Tween-80
[5] = dose: 100.0 mg/kg/injection, schedule: Q01DX001 (ip), vehicle: saline with Tween-80
[6] = dose: 200.0 mg/kg/injection, schedule: Q01DX001 (ip), vehicle: saline with Tween-80
[7] = dose: 400.0 mg/kg/injection, schedule: Q01DX001 (ip), vehicle: saline with Tween-80
[8] = dose: 100.0 mg/kg/injection, schedule: Q04DX003 (ip), vehicle: saline with Tween-80
[9] = dose: 200.0 mg/kg/injection, schedule: Q04DX003 (ip), vehicle: saline with Tween-80
[10] = dose: 400.0 mg/kg/injection, schedule: Q04DX003 (ip), vehicle: saline with Tween-80
[11] = dose: 50.0 mg/kg/injection, schedule: Q01DX009 (ip), vehicle: saline with Tween-80
[12] = dose: 100.0 mg/kg/injection, schedule: Q01DX009 (ip), vehicle: saline with Tween-80
[13] = dose: 200.0 mg/kg/injection, schedule: Q01DX009 (ip), vehicle: saline with Tween-80
[14] = dose: 25.0 mg/kg/injection, schedule: Q01DX009 (ip), vehicle: Klucel (hydroxypropylcellulose) (HPC)
[15] = dose: 50.0 mg/kg/injection, schedule: Q01DX009 (ip), vehicle: Klucel (hydroxypropylcellulose) (HPC)
[16] = dose: 100.0 mg/kg/injection, schedule: Q01DX009 (ip), vehicle: Klucel (hydroxypropylcellulose) (HPC)
[17] = dose: 400.0 mg/kg/injection, schedule: Q01DX009 (ip), vehicle: saline with Tween-80
[18] = dose: 400.0 mg/kg/injection, schedule: Q04DX002 (ip), vehicle: saline with Tween-80
[19] = dose: 12.5 mg/kg/injection, schedule: Q01DX009 (ip), vehicle: saline with Tween-80
[20] = dose: 25.0 mg/kg/injection, schedule: Q01DX009 (ip), vehicle: saline with Tween-80

SMILES: COc1ccc2c(c1OC)C1C3CC=CC3C2C2=[N+]1CCc1cc3c(cc12)OCO3 (stereo not drawn)
- T/C (dose: 3.12 mg/kg/injection, schedule: Q01DX009 (ip), vehicle: saline): 95 % of control
- T/C (dose: 6.25 mg/kg/injection, schedule: Q01DX009 (ip), vehicle: Klucel (hydroxypropylcellulose) (HPC)): 114 % of control
- T/C [1]: 100 % of control
- T/C [2]: 90 % of control
- T/C [3]: 108 % of control
- T/C (dose: 18.0 mg/kg/injection, schedule: Q01DX009 (ip), vehicle: Klucel (hydroxypropylcellulose) (HPC)): 86 % of control

SMILES: O=S(=O)(OCCCl)C(F)(F)F
- T/C (dose: 1.56 mg/kg/injection, schedule: Q01DX009 (ip), vehicle: saline with Tween-80): 119 % of control
- T/C (dose: 3.12 mg/kg/injection, schedule: Q01DX009 (ip), vehicle: saline with Tween-80): 107 % of control
- T/C [4]: 120 % of control

SMILES: O=C(Nc1ccccc1F)Nc1cccc2ccccc12
- T/C [5]: 100 % of control
- T/C [6]: 100 % of control
- T/C [7]: 90 % of control

SMILES: CN1C(=O)C23CC4=CC=CC(O)C4N2C(=O)C1(CO)SS3 (stereo not drawn)
- T/C (dose: 0.19 mg/kg/injection, schedule: Q01DX009 (ip), vehicle: saline with Tween-80): 100 % of control
- T/C (dose: 0.38 mg/kg/injection, schedule: Q01DX009 (ip), vehicle: saline with Tween-80): 100 % of control
- T/C (dose: 0.75 mg/kg/injection, schedule: Q01DX009 (ip), vehicle: saline with Tween-80): 108 % of control and 109 % of control

SMILES: COc1ccc(C(O)c2ccccn2)cc1 (stereo not drawn)
- T/C [8]: 100 % of control
- T/C [9]: 110 % of control
- T/C [10]: 105 % of control

SMILES: c1ccc(-c2nc3ccccc3nc2-c2ccc(Cc3ccc(-c4nc5ccccc5nc4-c4ccccc4)cc3)cc2)cc1
- T/C [11]: 88 % of control
- T/C [12]: 103 % of control
- T/C [13]: 88 % of control

SMILES: C=CCOP(=O)(OCC=C)OCC=C
- T/C [14]: 100 % of control
- T/C [15]: 104 % of control
- T/C [16]: 104 % of control

SMILES: COn1nnc2c(Cl)c(Cl)ccc21
- T/C [8]: 95 % of control
- T/C [9]: 92 % of control
- T/C [10]: 100 % of control

SMILES: C=C(NC(C)=O)C(=O)O
- T/C (dose: 20.0 mg/kg/injection, schedule: Q04DX003 (ip), vehicle: Klucel (hydroxypropylcellulose) (HPC)): 108 % of control
- T/C [14]: 104 % of control
- T/C (dose: 40.0 mg/kg/injection, schedule: Q04DX003 (ip), vehicle: Klucel (hydroxypropylcellulose) (HPC)): 108 % of control
- T/C [15]: 104 % of control
- T/C (dose: 80.0 mg/kg/injection, schedule: Q04DX003 (ip), vehicle: Klucel (hydroxypropylcellulose) (HPC)): 86 % of control
- T/C [16]: 90 % of control
- T/C (dose: 100.0 mg/kg/injection, schedule: Q04DX003 (ip), vehicle: Klucel (hydroxypropylcellulose) (HPC)): 95 % of control

SMILES: CCC(=O)Oc1ccc2c(c1)CC[C@@H]1[C@@H]2CC[C@]2(C)C[C@H](OC(=O)CC)C[C@@H]12
- T/C [12]: 100 % of control
- T/C [8]: 95 % of control
- T/C [13]: 118 % of control
- T/C [9]: 100 % of control
- T/C [17]: 118 % of control
- T/C [10]: 90 % of control

SMILES: CCOC(=O)/C(C#N)=C/c1c(-c2ccccc2)nn2ccccc12
- T/C [11]: 96 % of control
- T/C [12]: 91 % of control

SMILES: COc1ccc(/C=C2\C(=O)C(c3ccccc3)N(c3ccccc3)C2=O)cc1 (stereo not drawn)
- T/C [18]: 88 % of control

SMILES: CCOC(=O)C1=C(O)Cc2c(nc3ccc(C)cn3c2=O)C1
- T/C [11]: 100 % of control
- T/C [12]: 96 % of control
- T/C [13]: 98 % of control

SMILES: C=C(Br)CNCCCCCC
- T/C (dose: 4.68 mg/kg/injection, schedule: Q04DX003 (ip), vehicle: Klucel (hydroxypropylcellulose) (HPC)): 95 % of control
- T/C (dose: 9.37 mg/kg/injection, schedule: Q04DX003 (ip), vehicle: Klucel (hydroxypropylcellulose) (HPC)): 100 % of control
- T/C [2]: 109 % of control
- T/C (dose: 18.75 mg/kg/injection, schedule: Q04DX003 (ip), vehicle: Klucel (hydroxypropylcellulose) (HPC)): 108 % of control
- T/C [14]: 118 % of control
- T/C (dose: 37.5 mg/kg/injection, schedule: Q04DX003 (ip), vehicle: Klucel (hydroxypropylcellulose) (HPC)): 86 % of control
- T/C [15]: 113 % of control

SMILES: CCC(C(=O)OC)C1CCCCC1 (stereo not drawn)
- T/C [12]: 107 % of control
- T/C [8]: 108 % of control
- T/C [13]: 111 % of control
- T/C [9]: 100 % of control
- T/C [17]: 103 % of control
- T/C [10]: 104 % of control

SMILES: C=C(Cl)COC1CCS(=O)(=O)C1 (stereo not drawn)
- T/C [4]: 90 % of control
- T/C [19]: 90 % of control
- T/C [20]: 93 % of control

SMILES: COc1ncnc2c1c(C#N)cn2C1OC(CO)C(O)C1O (stereo not drawn)
- T/C [1]: 102 % of control
- T/C [3]: 102 % of control
- T/C (dose: 25.0 mg/kg/injection, schedule: Q01DX009 (ip), vehicle: saline): 102 % of control
- T/C (dose: 50.0 mg/kg/injection, schedule: Q01DX009 (ip), vehicle: saline): 95 % of control

SMILES: CN(C)c1ccc(C2N(Cc3ccccc3)CCC3CCCCN32)cc1 (stereo not drawn)
- T/C [11]: 99 % of control
- T/C [12]: 92 % of control

SMILES: O=c1[nH]c(Cl)ncc1F
- T/C (dose: 67.0 mg/kg/injection, schedule: Q01DX009 (ip), vehicle: saline with Tween-80): 100 % of control
- T/C (dose: 75.0 mg/kg/injection, schedule: Q04DX003 (ip), vehicle: saline with Tween-80): 113 % of control
- T/C [12]: 103 % of control
- T/C (dose: 150.0 mg/kg/injection, schedule: Q01DX009 (ip), vehicle: saline with Tween-80): 107 % of control
- T/C (dose: 150.0 mg/kg/injection, schedule: Q04DX003 (ip), vehicle: saline with Tween-80): 100 % of control
- T/C (dose: 225.0 mg/kg/injection, schedule: Q01DX009 (ip), vehicle: saline with Tween-80): 111 % of control
- T/C (dose: 300.0 mg/kg/injection, schedule: Q04DX003 (ip), vehicle: saline with Tween-80): 86 % of control

SMILES: CCC(/C=C\C(C)C1CCC2C3CC=C4CC(O)CCC4(C)C3CCC12C)C(C)C (stereo not drawn)
- T/C (dose: 50.0 mg/kg/injection, schedule: Q01DX010 (ip), vehicle: saline): 104 % of control
- T/C (dose: 100.0 mg/kg/injection, schedule: Q01DX010 (ip), vehicle: saline): 108 % of control
- T/C (dose: 200.0 mg/kg/injection, schedule: Q01DX010 (ip), vehicle: saline): 100 % of control
- T/C (dose: 400.0 mg/kg/injection, schedule: Q01DX010 (ip), vehicle: saline): 91 % of control

SMILES: Nc1nc(SCCc2ccccc2)c2[nH]cnc2n1
- T/C [12]: 109 % of control
- T/C [8]: 104 % of control
- T/C [13]: 100 % of control
- T/C [9]: 100 % of control
- T/C [17]: 90 % of control
- T/C [10]: 104 % of control

SMILES: CN1C(=O)C(C2(C3C(=O)N(C)C(=O)N(C)C3=O)C(=O)N(C)C(=O)N(C)C2=O)C(=O)N(C)C1=O
- T/C [5]: 108 % of control
- T/C [6]: 104 % of control
- T/C [7]: 102 % of control

SMILES: CCCCCCCCOC(=O)c1ccc(OP(=O)(N(C)C)N(C)C)cc1
- T/C [19]: 99 % of control
- T/C [20]: 101 % of control
- T/C [11]: 106 % of control and 124 % of control
- T/C [13]: 94 % of control

SMILES: Nc1nc(N)c2nc(CNc3ccc(C(=O)NC(CCC(=O)O)C(=O)O)cc3)cnc2n1 (stereo not drawn)
- T/C (dose: 0.03 mg/kg/injection, schedule: Q01DX010 (ip), vehicle: other): 90 % of control and 104 % of control
- T/C (dose: 0.05 mg/kg/injection, schedule: Q01DX010 (ip), vehicle: other): 109 % of control and 115 % of control
- T/C (dose: 0.1 mg/kg/injection, schedule: Q01DX010 (ip), vehicle: other): 118 % of control
- T/C (dose: 0.2 mg/kg/injection, schedule: Q01DX010 (ip), vehicle: other): 163 % of control and 175 % of control

SMILES: O=C1OCC2SC(c3ccccc3)NC12 (stereo not drawn)
- T/C (dose: 100.0 mg/kg/injection, schedule: Q01DX001 (ip), vehicle: saline sonified): 95 % of control
- T/C (dose: 200.0 mg/kg/injection, schedule: Q01DX001 (ip), vehicle: saline sonified): 113 % of control
- T/C (dose: 400.0 mg/kg/injection, schedule: Q01DX001 (ip), vehicle: saline sonified): 95 % of control

SMILES: COC1(F)C2(Cl)C=C(c3ccccc3)C1(Cl)C(Cl)=C2Cl (stereo not drawn)
- T/C (dose: 100.0 mg/kg/injection, schedule: Q04DX002 (ip), vehicle: saline with Tween-80): 101 % of control
- T/C (dose: 200.0 mg/kg/injection, schedule: Q04DX002 (ip), vehicle: saline with Tween-80): 111 % of control
- T/C [18]: 100 % of control

SMILES: C[N+](C)(Cn1ncc2ccc([N+](=O)[O-])cc21)Cn1ncc2ccc([N+](=O)[O-])cc21
- T/C [8]: 106 % of control
